Values of other authors, collected in patent US20080213192A1, “AEROSOL LOTION FORMULATIONS” (Schering-Plough Healthcare Products, Inc., priority 2006, published 2008).

Conditions: Raval and Parrott, J. Pharm. Sci. 1967

In the case of `COC(=O)c1ccc(O)cc1` [methylparaben], the “pH above which methylparaben hydrolyzes” value is given as > 6.
